This is an account of results in ChEMBL document CHEMBL1140184, “Synthesis and structure-activity relationship studies of highly potent novel oxazolidinone antibacterials” (2008).

What all share (format): functional
In experiment [1] the test system is Staphylococcus aureus. Nature of the experiment: Antibacterial activity against methicillin-resistant Staphylococcus aureus TK7 by agar dilution method. In general terms: Agar dilution tests growth on a series of plates holding different concentrations.
The subject of experiment [2] is Staphylococcus aureus. The experiment is described as follows: Antibacterial activity against methicillin-sensitive Staphylococcus aureus Smith by agar dilution method.
The subject of experiment [3] is Enterococcus faecium. Nature of the experiment: Antibacterial activity against vancomycin-resistant Enterococcus faecium A2280 by agar dilution method.
Experiment [4] relates to Haemophilus influenzae. Nature of the experiment: Antibacterial activity against Haemophilus influenzae IID983 by agar dilution method.
For experiment [5], the system named is Streptococcus pneumoniae. The experiment is described as follows: Antibacterial activity against penicillin-resistant Streptococcus pneumoniae PR44 by agar dilution method.
In experiment [6] the test system is Streptococcus pneumoniae. The experiment is described as follows: Antibacterial activity against penicillin-susceptible Streptococcus pneumoniae IID553 by agar dilution method.

≈ marks a conversion by molar mass, not a printed value. Where only a bound is given, the exact number is not on record here.

With `N[C@]1(c2ccc(-c3ccc(N4C[C@H](Cn5ccnn5)OC4=O)cc3F)cn2)[C@@H]2CNC[C@@H]21`, the MIC in experiment [1] came out at 2 µg/mL (≈ 4.59 µM); in experiment [2], 1 µg/mL (≈ 2.3 µM); in experiment [3] it was 2 µg/mL (≈ 4.59 µM); in experiment [4], 32 µg/mL (≈ 73.5 µM); in experiment [5], 0.5 µg/mL (≈ 1.15 µM); in experiment [6], 0.5 µg/mL (≈ 1.15 µM).
Turning to `N#CN1C[C@@H]2[C@H](C1)[C@@]2(C#N)c1ccc(-c2ccc(N3C[C@H](Cn4ccnn4)OC3=O)cc2F)cn1`, the MIC worked out at 0.06 µg/mL (≈ 0.128 µM) in experiment [1]; 0.06 µg/mL (≈ 0.128 µM) in experiment [2]; 0.06 µg/mL (≈ 0.128 µM) in experiment [3]; 2 µg/mL (≈ 4.25 µM) in experiment [4]; 0.06 µg/mL (≈ 0.128 µM) in experiment [5]; 0.06 µg/mL (≈ 0.128 µM) in experiment [6].
In the case of `N#C[C@]1(c2ccc(-c3ccc(N4C[C@H](CNc5ccon5)OC4=O)cc3F)cn2)[C@@H]2CNC[C@@H]21`, the MIC in experiment [1] was 0.125 µg/mL (≈ 0.271 µM); in experiment [2] it was 0.125 µg/mL (≈ 0.271 µM); in experiment [3], 0.5 µg/mL (≈ 1.09 µM); in experiment [4] it was above 16 µg/mL; in experiment [5], 0.25 µg/mL (≈ 0.543 µM); in experiment [6] it was 0.25 µg/mL (≈ 0.543 µM).
In the case of `N#C[C@]1(c2ccc(-c3ccc(N4C[C@H](Cn5ccnn5)OC4=O)cc3F)cn2)[C@@H]2COC[C@@H]21`, the MIC in experiment [1] amounted to 0.06 µg/mL (≈ 0.134 µM); in experiment [2], 0.06 µg/mL (≈ 0.134 µM); in experiment [3] it was 0.25 µg/mL (≈ 0.56 µM); in experiment [4] it was 2 µg/mL (≈ 4.48 µM); in experiment [5], 0.06 µg/mL (≈ 0.134 µM); in experiment [6], 0.06 µg/mL (≈ 0.134 µM).
For `N#C[C@]1(c2ccc(-c3ccc(N4C[C@H](Cn5ccnn5)OC4=O)cc3)cn2)[C@@H]2CS(=O)(=O)C[C@@H]21`, the MIC in experiment [1] was 0.06 µg/mL (≈ 0.126 µM); in experiment [2], 0.06 µg/mL (≈ 0.126 µM); in experiment [3] it was 0.125 µg/mL (≈ 0.262 µM); in experiment [4], 4 µg/mL (≈ 8.39 µM); in experiment [5], 0.06 µg/mL (≈ 0.126 µM); in experiment [6], 0.06 µg/mL (≈ 0.126 µM).
Take `N#C[C@]1(c2ccc(-c3c(F)cc(N4C[C@H](Cn5ccnn5)OC4=O)cc3F)cn2)[C@@H]2CSC[C@@H]21`: the MIC is 0.06 µg/mL (≈ 0.125 µM) in experiment [1]; 0.06 µg/mL (≈ 0.125 µM) in experiment [2]; 0.5 µg/mL (≈ 1.04 µM) in experiment [3]; above 16 µg/mL in experiment [4]; 0.25 µg/mL (≈ 0.52 µM) in experiment [5]; 0.25 µg/mL (≈ 0.52 µM) in experiment [6].
Turning to `N#C[C@]1(c2ccc(-c3ccc(N4C[C@H](Cn5ccnn5)OC4=O)cc3F)cn2)[C@@H]2CSC[C@@H]21`, the MIC in experiment [1] was 0.06 µg/mL (≈ 0.13 µM); in experiment [2], 0.06 µg/mL (≈ 0.13 µM); in experiment [3], 0.25 µg/mL (≈ 0.541 µM); in experiment [4], above 2 µg/mL; in experiment [5], 0.06 µg/mL (≈ 0.13 µM); in experiment [6], 0.125 µg/mL (≈ 0.27 µM).
With `N#Cc1ccc(N2C[C@@H]3[C@H](C2)[C@@]3(C#N)c2ccc(-c3ccc(N4C[C@H](Cn5ccnn5)OC4=O)cc3F)cn2)nc1`, the MIC in experiment [1] is 0.06 µg/mL (≈ 0.11 µM); in experiment [2] it was 0.06 µg/mL (≈ 0.11 µM); in experiment [3], 0.125 µg/mL (≈ 0.228 µM); in experiment [4] it was above 2 µg/mL; in experiment [5], 0.06 µg/mL (≈ 0.11 µM); in experiment [6], 0.125 µg/mL (≈ 0.228 µM).
For the compound `CC(=O)NC[C@H]1CN(c2ccc(-c3ccc([C@@]4(C#N)[C@@H]5CNC[C@@H]54)nc3)c(F)c2)C(=O)O1`, the MIC in experiment [1] worked out at 0.125 µg/mL (≈ 0.287 µM); in experiment [2], 0.125 µg/mL (≈ 0.287 µM); in experiment [3] it was 0.25 µg/mL (≈ 0.574 µM); in experiment [4], 4 µg/mL (≈ 9.19 µM); in experiment [5], 0.06 µg/mL (≈ 0.138 µM); in experiment [6], 0.125 µg/mL (≈ 0.287 µM).
Regarding `N#C[C@]1(c2ccc(-c3ccc(N4C[C@H](CNC(=O)C(F)F)OC4=O)cc3F)cn2)[C@@H]2CNC[C@@H]21`, the MIC in experiment [1] amounted to 0.125 µg/mL (≈ 0.265 µM); in experiment [2], 0.125 µg/mL (≈ 0.265 µM); in experiment [3], 0.25 µg/mL (≈ 0.53 µM); in experiment [4], 2 µg/mL (≈ 4.24 µM); in experiment [5], 0.06 µg/mL (≈ 0.127 µM); in experiment [6], 0.06 µg/mL (≈ 0.127 µM).
Turning to `N#C[C@]1(c2ccc(-c3ccc(N4C[C@H](Cn5ccnn5)OC4=O)cc3)cn2)[C@@H]2CSC[C@@H]21`, the MIC was determined as 0.06 µg/mL (≈ 0.135 µM) in experiment [1]; 0.06 µg/mL (≈ 0.135 µM) in experiment [2]; 0.25 µg/mL (≈ 0.562 µM) in experiment [3]; 8 µg/mL (≈ 18 µM) in experiment [4]; 0.06 µg/mL (≈ 0.135 µM) in experiment [5]; 0.125 µg/mL (≈ 0.281 µM) in experiment [6].
In the case of `N#C[C@]1(c2ccc(-c3c(F)cc(N4C[C@H](Cn5ccnn5)OC4=O)cc3F)cn2)[C@@H]2CNC[C@@H]21`, the MIC in experiment [1] was 0.125 µg/mL (≈ 0.27 µM); in experiment [2] it was 0.125 µg/mL (≈ 0.27 µM); in experiment [3] it was 0.25 µg/mL (≈ 0.539 µM); in experiment [4], 4 µg/mL (≈ 8.63 µM); in experiment [5] it was 0.125 µg/mL (≈ 0.27 µM); in experiment [6], 0.125 µg/mL (≈ 0.27 µM).
As for `CN1C[C@@H]2[C@H](C1)[C@@]2(C#N)c1ccc(-c2ccc(N3C[C@H](Cn4ccnn4)OC3=O)cc2F)cn1`, the MIC in experiment [1] was 0.06 µg/mL (≈ 0.131 µM); in experiment [2] it was 0.06 µg/mL (≈ 0.131 µM); in experiment [3], 0.25 µg/mL (≈ 0.544 µM); in experiment [4], 4 µg/mL (≈ 8.71 µM); in experiment [5], 0.06 µg/mL (≈ 0.131 µM); in experiment [6] it was 0.06 µg/mL (≈ 0.131 µM).
Consider `COC(=O)NC[C@H]1CN(c2ccc(-c3ccc([C@@]4(C#N)[C@@H]5CNC[C@@H]54)nc3)c(F)c2)C(=O)O1`, for which the MIC in experiment [1] was found to be 0.125 µg/mL (≈ 0.277 µM); in experiment [2] it was 0.125 µg/mL (≈ 0.277 µM); in experiment [3], 0.125 µg/mL (≈ 0.277 µM); in experiment [4], 4 µg/mL (≈ 8.86 µM); in experiment [5], 0.125 µg/mL (≈ 0.277 µM); in experiment [6], 0.125 µg/mL (≈ 0.277 µM).
`CC(=O)NC[C@H]1CN(c2ccc(N3CCOCC3)c(F)c2)C(=O)O1` [LINEZOLID]: the MIC in experiment [1] came to 1 µg/mL (≈ 2.96 µM); in experiment [2], 1 µg/mL (≈ 2.96 µM); in experiment [3] it was 2 µg/mL (≈ 5.93 µM); in experiment [4], 16 µg/mL (≈ 47.4 µM).
On to `N#C[C@]1(c2c(F)cc(-c3ccc(N4C[C@H](Cn5ccnn5)OC4=O)cc3F)cc2F)[C@@H]2CNC[C@@H]21`, for which the MIC in experiment [1] is 0.5 µg/mL (≈ 1.04 µM); in experiment [2], 0.5 µg/mL (≈ 1.04 µM); in experiment [3] it was 0.25 µg/mL (≈ 0.52 µM); in experiment [4], above 128 µg/mL; in experiment [5], 1 µg/mL (≈ 2.08 µM); in experiment [6] it was 1 µg/mL (≈ 2.08 µM).
In the case of `N#C[C@]1(c2ccc(-c3ccc(N4C[C@H](Cn5ccnn5)OC4=O)cc3F)cn2)[C@@H]2CN(C(=O)CO)C[C@@H]21`, the MIC in experiment [1] was found to be 0.06 µg/mL (≈ 0.119 µM); in experiment [2], 0.06 µg/mL (≈ 0.119 µM); in experiment [3], 0.125 µg/mL (≈ 0.248 µM); in experiment [4] it was 4 µg/mL (≈ 7.94 µM); in experiment [5] it was 0.06 µg/mL (≈ 0.119 µM); in experiment [6], 0.06 µg/mL (≈ 0.119 µM).
Consider `NC[C@]1(c2ccc(-c3ccc(N4C[C@H](Cn5ccnn5)OC4=O)cc3F)cn2)[C@@H]2CNC[C@@H]21`, for which the MIC in experiment [1] was 4 µg/mL (≈ 8.9 µM); in experiment [2], 4 µg/mL (≈ 8.9 µM); in experiment [3] it was 16 µg/mL (≈ 35.6 µM); in experiment [4] it was 128 µg/mL (≈ 285 µM); in experiment [5] it was 8 µg/mL (≈ 17.8 µM); in experiment [6] it was 4 µg/mL (≈ 8.9 µM).
Turning to `N#C[C@]1(c2ccc(-c3ccc(N4C[C@H](Cn5ccnn5)OC4=O)cc3F)cn2)[C@@H]2C[S+]([O-])C[C@@H]21` (stereo partly drawn), the MIC amounted to 0.06 µg/mL (≈ 0.125 µM) in experiment [1]; 0.06 µg/mL (≈ 0.125 µM) in experiment [2]; 0.125 µg/mL (≈ 0.261 µM) in experiment [3]; 4 µg/mL (≈ 8.36 µM) in experiment [4]; 0.06 µg/mL (≈ 0.125 µM) in experiment [5]; 0.06 µg/mL (≈ 0.125 µM) in experiment [6].
Take `CCC(=O)NC[C@H]1CN(c2ccc(-c3ccc([C@@]4(C#N)[C@@H]5CNC[C@@H]54)nc3)c(F)c2)C(=O)O1`: the MIC in experiment [1] was 0.25 µg/mL (≈ 0.556 µM); in experiment [2], 0.25 µg/mL (≈ 0.556 µM); in experiment [3] it was 0.25 µg/mL (≈ 0.556 µM); in experiment [4] it was 8 µg/mL (≈ 17.8 µM); in experiment [5] it was 0.125 µg/mL (≈ 0.278 µM); in experiment [6] it was 0.25 µg/mL (≈ 0.556 µM).
`NC(=O)[C@]1(c2ccc(-c3ccc(N4C[C@H](Cn5ccnn5)OC4=O)cc3F)cn2)[C@@H]2CNC[C@@H]21`: the MIC in experiment [1] was found to be 2 µg/mL (≈ 4.32 µM); in experiment [2], 2 µg/mL (≈ 4.32 µM); in experiment [3] it was 4 µg/mL (≈ 8.63 µM); in experiment [5], 0.5 µg/mL (≈ 1.08 µM); in experiment [6], 1 µg/mL (≈ 2.16 µM).
